Experimental data: ChEMBL document CHEMBL1201862, “PubChem BioAssay data set” (2004)
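Briefly, cells in 96-well plates were exposed to five compound concentrations for 48 h, and endpoints were estimated by linear interpolation. Here, GI50 denotes the concentration required for 50% inhibition of growth.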 The source made the active and inactive calls. No stated cut-off is given here; in the data, active = GI50 up to about 1.1 µM and inactive = higher.

How the values were obtained:
Assay in all cases: inhibition of tumour cell growth, NCI panel, 48 h
[1] = system: CAKI-1
[2] = system: NCI-H23
[3] = system: K562
[4] = system: SNB-78
[5] = system: OVCAR-3
[6] = system: HL-60
[7] = system: HCT-116
[8] = system: HCC 2998
[9] = system: CCRF-CEM
[10] = system: RXF 393
[11] = system: HOP-92
[12] = system: MOLT-4
[13] = system: A549
[14] = system: LXFL 529
[15] = system: OVCAR-4
[16] = system: A498
[17] = system: KM12
[18] = system: HOP-62
[19] = system: SK-MEL-2
[20] = system: KM-20L2
[21] = system: M19-MEL
[22] = system: UO-31
[23] = system: SF-539
[24] = system: SNB-19
[25] = system: NCI-H460
[26] = system: IGROV-1
[27] = system: SN12C
[28] = system: SW-620
[29] = system: ACHN
[30] = system: HOP-18
[31] = system: HCT-15
[32] = system: 786-0
[33] = system: DLD-1
[34] = system: RPMI-8226
[35] = system: SK-MEL-28
[36] = system: DMS-273
[37] = system: UACC-62
[38] = system: SR
[39] = system: DMS-114
[40] = system: EKVX
[41] = system: COLO 205
[42] = system: SNB-75
[43] = system: HT-29
[44] = system: OVCAR-8
[45] = system: U-251
[46] = system: SF-295
[47] = system: UACC-257
[48] = system: TK-10
[49] = system: SK-OV-3
[50] = system: Malme-3M
[51] = system: LOX IMVI
[52] = system: OVCAR-5
[53] = system: XF498
[54] = system: M14
[55] = system: SK-MEL-5
[56] = system: NCI-H226

SMILES: COC1/C(=C\c2ccccc2I)c2ccccc2N1C(C)=O (stereo not drawn)
- GI50 [1]: 17.1 µM (inactive)
- GI50 [2]: 15.7 µM (inactive)
- GI50 [3]: 15.6 µM (inactive)
- GI50 [4]: 25.2 µM (inactive)
- GI50 [5]: 16.6 µM (inactive)
- GI50 [6]: 3.46 µM (inactive)
- GI50 [7]: 13.8 µM (inactive)
- GI50 [8]: 16 µM (inactive)
- GI50 [9]: 17 µM (inactive)
- GI50 [10]: 5.69 µM (inactive)
- GI50 [11]: 2.2 µM (inactive)
- GI50 [12]: 14.1 µM (inactive)
- GI50 [13]: 16 µM (inactive)
- GI50 [14]: 12.9 µM (inactive)
- GI50 [15]: 16.2 µM (inactive)
- GI50 [16]: 15.8 µM (inactive)
- GI50 [17]: 15.6 µM (inactive)
- GI50 [18]: 17.2 µM (inactive)
- GI50 [19]: 17.5 µM (inactive)
- GI50 [20]: 15.7 µM (inactive)
- GI50 [21]: 19.6 µM (inactive)
- GI50 [22]: 2.48 µM (inactive)
- GI50 [23]: 16.4 µM (inactive)
- GI50 [24]: 22.6 µM (inactive)
- GI50 [25]: 17.6 µM (inactive)
- GI50 [26]: 18.1 µM (inactive)
- GI50 [27]: 15.2 µM (inactive)
- GI50 [28]: 20.6 µM (inactive)
- GI50 [29]: 19.5 µM (inactive)
- GI50 [30]: 19 µM (inactive)
- GI50 [31]: 14.2 µM
- GI50 [32]: 18.1 µM (inactive)
- GI50 [33]: 15.5 µM (inactive)
- GI50 [34]: 8.87 µM (inactive)
- GI50 [35]: 17.3 µM (inactive)
- GI50 [36]: 11.7 µM (inactive)
- GI50 [37]: 13 µM (inactive)
- GI50 [38]: 14.4 µM (inactive)
- GI50 [39]: 17 µM (inactive)
- GI50 [40]: 15.1 µM (inactive)
- GI50 [41]: 17.6 µM (inactive)
- GI50 [42]: 14.3 µM (inactive)
- GI50 [43]: 15.6 µM (inactive)
- GI50 [44]: 30 µM (inactive)
- GI50 [45]: 18.6 µM (inactive)
- GI50 [46]: 14.3 µM (inactive)
- GI50 [47]: 18.3 µM (inactive)

SMILES: CC(NC1CCCC[C@@H]1O)c1ccccc1 (stereo partly drawn)
- GI50 [1]: 55.3 µM (inactive)
- GI50 [48]: > 100 µM (inactive)
- GI50 [3]: > 100 µM (inactive)
- GI50 [4]: > 100 µM (inactive)
- GI50 [5]: > 100 µM (inactive)
- GI50 [6]: > 100 µM (inactive)
- GI50 [7]: > 100 µM (inactive)
- GI50 [8]: > 100 µM (inactive)
- GI50 [9]: > 100 µM (inactive)
- GI50 [10]: > 100 µM (inactive)
- GI50 [11]: > 100 µM (inactive)
- GI50 [12]: > 100 µM (inactive)
- GI50 [13]: > 100 µM (inactive)
- GI50 [14]: > 100 µM (inactive)
- GI50 [15]: > 100 µM (inactive)
- GI50 [17]: > 100 µM (inactive)
- GI50 [18]: > 100 µM (inactive)
- GI50 [19]: > 100 µM (inactive)
- GI50 [20]: > 100 µM (inactive)
- GI50 [21]: > 100 µM (inactive)
- GI50 [22]: > 100 µM (inactive)
- GI50 [49]: > 100 µM (inactive)
- GI50 [24]: > 100 µM (inactive)
- GI50 [25]: > 100 µM (inactive)
- GI50 [26]: > 100 µM (inactive)
- GI50 [27]: > 100 µM (inactive)
- GI50 [28]: > 100 µM (inactive)
- GI50 [50]: > 100 µM (inactive)
- GI50 [51]: > 100 µM (inactive)
- GI50 [29]: > 100 µM (inactive)
- GI50 [30]: > 100 µM (inactive)
- GI50 [31]: > 100 µM
- GI50 [32]: > 100 µM (inactive)
- GI50 [33]: > 100 µM (inactive)
- GI50 [52]: > 100 µM (inactive)
- GI50 [53]: > 100 µM (inactive)
- GI50 [54]: > 100 µM (inactive)
- GI50 [34]: > 100 µM (inactive)
- GI50 [35]: > 100 µM (inactive)
- GI50 [36]: > 100 µM (inactive)
- GI50 [37]: > 100 µM (inactive)
- GI50 [40]: > 100 µM (inactive)
- GI50 [41]: > 100 µM (inactive)
- GI50 [42]: > 100 µM (inactive)
- GI50 [55]: > 100 µM (inactive)
- GI50 [56]: > 100 µM (inactive)
- GI50 [43]: > 100 µM (inactive)
- GI50 [44]: > 100 µM (inactive)
- GI50 [45]: > 100 µM (inactive)
- GI50 [46]: > 100 µM (inactive)
- GI50 [47]: > 100 µM (inactive)
